Laboratory results taken from PMC8001506 (Marine Drugs, 2021).
Entries after “also recorded” stand apart in the source; their conditions may differ. Where a SMILES comes first, the peptide text is derived from it. Bridges are numbered along the chain shown (N, C = ends).

Legend:
rat α3β2 nAChR = rat α3β2 nAChR (Rattus norvegicus, UniProt P04757+P12390); experiment: cell-based
rat α6/α3β2β3 nAChR = rat α6/α3β2β3 nAChR (Rattus norvegicus, UniProt P04757+P12390+P12391+P43143); experiment: cell-based
rat α7 nAChR = rat α7 nAChR (Rattus norvegicus, UniProt Q05941); experiment: cell-based; assay type: cell-based
rat α7 nAChR, sequence (Q05941 23-502 limits assumed): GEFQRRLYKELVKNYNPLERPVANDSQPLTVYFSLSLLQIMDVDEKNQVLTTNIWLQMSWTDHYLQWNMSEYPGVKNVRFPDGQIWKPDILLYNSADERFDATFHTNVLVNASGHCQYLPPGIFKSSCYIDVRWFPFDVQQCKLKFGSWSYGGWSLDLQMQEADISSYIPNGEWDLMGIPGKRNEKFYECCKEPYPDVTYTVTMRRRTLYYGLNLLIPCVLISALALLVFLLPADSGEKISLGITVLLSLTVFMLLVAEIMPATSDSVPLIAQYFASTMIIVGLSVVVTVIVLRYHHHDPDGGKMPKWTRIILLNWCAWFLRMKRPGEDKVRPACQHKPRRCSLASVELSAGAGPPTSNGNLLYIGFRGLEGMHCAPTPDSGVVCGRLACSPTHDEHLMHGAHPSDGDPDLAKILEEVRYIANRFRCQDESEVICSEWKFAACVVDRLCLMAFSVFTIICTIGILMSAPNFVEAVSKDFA

rat α4β2 nAChR = rat α4β2 nAChR (Rattus norvegicus, UniProt P09483+P12390); experiment: cell-based; assay type: cell-based
rat α4β2 nAChR, sequence (P09483 31-630 limits assumed): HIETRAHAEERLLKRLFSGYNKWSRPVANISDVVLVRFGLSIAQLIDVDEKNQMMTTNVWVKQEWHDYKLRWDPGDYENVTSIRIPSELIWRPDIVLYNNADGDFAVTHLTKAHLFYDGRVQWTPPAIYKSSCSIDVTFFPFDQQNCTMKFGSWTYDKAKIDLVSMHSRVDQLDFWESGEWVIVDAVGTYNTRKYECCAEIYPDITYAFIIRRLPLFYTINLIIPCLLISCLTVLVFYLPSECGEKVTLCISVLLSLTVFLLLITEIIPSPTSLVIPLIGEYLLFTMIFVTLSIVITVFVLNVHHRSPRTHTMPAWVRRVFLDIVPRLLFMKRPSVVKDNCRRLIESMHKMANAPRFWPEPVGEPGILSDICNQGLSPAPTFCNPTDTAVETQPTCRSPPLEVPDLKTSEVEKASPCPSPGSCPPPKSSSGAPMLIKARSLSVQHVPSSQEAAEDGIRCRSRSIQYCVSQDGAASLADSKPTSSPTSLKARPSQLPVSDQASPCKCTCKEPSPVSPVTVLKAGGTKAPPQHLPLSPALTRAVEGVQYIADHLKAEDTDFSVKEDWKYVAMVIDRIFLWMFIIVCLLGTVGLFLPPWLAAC
rat α4β2 nAChR, sequence (P12390 25-500 limits assumed): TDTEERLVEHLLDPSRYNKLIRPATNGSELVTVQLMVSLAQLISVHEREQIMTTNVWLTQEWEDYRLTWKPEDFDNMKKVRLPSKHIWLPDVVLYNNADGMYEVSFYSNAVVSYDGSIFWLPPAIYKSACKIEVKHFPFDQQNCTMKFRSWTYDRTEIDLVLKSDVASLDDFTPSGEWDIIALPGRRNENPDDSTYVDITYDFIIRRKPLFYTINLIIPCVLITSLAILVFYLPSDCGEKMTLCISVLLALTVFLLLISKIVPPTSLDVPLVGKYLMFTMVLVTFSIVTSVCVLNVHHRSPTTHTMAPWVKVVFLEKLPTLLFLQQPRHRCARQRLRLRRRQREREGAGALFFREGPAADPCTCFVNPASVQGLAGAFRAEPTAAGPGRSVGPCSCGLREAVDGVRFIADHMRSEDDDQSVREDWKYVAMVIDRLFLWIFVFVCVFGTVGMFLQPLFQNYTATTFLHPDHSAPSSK

rat α4β4 nAChR = rat α4β4 nAChR (Rattus norvegicus, UniProt P09483+P12392); experiment: cell-based; assay type: cell-based
rat α4β4 nAChR, sequence (P09483 31-630 limits assumed): as the sequence (P09483 31-630 limits assumed) above
rat α4β4 nAChR, sequence (P12392 21-495 limits assumed): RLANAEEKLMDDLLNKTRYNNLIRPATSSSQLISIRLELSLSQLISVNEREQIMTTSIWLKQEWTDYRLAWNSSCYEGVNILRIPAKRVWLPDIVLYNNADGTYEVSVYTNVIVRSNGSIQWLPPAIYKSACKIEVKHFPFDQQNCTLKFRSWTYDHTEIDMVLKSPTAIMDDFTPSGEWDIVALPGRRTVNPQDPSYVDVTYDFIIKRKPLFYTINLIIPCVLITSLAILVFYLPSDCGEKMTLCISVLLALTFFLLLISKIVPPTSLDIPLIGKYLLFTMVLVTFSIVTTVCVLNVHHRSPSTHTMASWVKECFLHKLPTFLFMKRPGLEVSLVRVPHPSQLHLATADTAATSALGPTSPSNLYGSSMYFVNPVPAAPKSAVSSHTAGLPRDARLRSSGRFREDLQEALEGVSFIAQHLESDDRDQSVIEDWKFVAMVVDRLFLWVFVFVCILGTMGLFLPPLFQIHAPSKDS

rat α3β4 nAChR = rat α3β4 nAChR (Rattus norvegicus, UniProt P04757+P12392); experiment: cell-based; assay type: cell-based
rat α3β4 nAChR, sequence (P04757 26-499 limits assumed): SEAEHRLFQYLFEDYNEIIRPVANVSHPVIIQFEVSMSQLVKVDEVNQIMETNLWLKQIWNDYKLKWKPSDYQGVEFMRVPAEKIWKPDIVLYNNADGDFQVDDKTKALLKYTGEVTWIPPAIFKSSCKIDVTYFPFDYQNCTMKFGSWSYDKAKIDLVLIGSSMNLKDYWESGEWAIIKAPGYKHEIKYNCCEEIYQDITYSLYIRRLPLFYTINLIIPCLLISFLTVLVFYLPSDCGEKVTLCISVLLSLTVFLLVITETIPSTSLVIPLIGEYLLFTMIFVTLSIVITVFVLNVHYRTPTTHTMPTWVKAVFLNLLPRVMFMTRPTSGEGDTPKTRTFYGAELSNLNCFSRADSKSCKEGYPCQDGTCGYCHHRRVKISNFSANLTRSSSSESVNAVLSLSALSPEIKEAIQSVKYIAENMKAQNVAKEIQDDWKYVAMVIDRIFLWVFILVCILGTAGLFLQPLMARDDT
rat α3β4 nAChR, sequence (P12392 21-495 limits assumed): as the sequence (P12392 21-495 limits assumed) above

rat α2β2 nAChR = rat α2β2 nAChR (Rattus norvegicus, UniProt P12389+P12390); experiment: cell-based; assay type: cell-based
rat α2β2 nAChR, sequence (P12389 28-511 limits assumed): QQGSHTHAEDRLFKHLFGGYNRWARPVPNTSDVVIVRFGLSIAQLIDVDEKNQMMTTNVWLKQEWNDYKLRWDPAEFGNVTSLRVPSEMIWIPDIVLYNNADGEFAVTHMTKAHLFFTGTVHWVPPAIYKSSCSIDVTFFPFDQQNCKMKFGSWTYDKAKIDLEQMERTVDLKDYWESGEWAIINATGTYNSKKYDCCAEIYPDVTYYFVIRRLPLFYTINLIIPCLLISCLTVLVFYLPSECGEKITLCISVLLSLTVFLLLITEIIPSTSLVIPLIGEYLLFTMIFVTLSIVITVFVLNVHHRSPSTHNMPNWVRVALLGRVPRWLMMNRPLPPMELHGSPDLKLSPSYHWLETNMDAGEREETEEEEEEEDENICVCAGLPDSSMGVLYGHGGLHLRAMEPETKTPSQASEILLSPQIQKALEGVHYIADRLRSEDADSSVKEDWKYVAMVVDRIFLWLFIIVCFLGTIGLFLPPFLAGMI
rat α2β2 nAChR, sequence (P12390 25-500 limits assumed): as the sequence (P12390 25-500 limits assumed) above

rat α2β4 nAChR = rat α2β4 nAChR (Rattus norvegicus, UniProt P12389+P12392); experiment: cell-based; assay type: cell-based
rat α2β4 nAChR, sequence (P12389 28-511 limits assumed): as the sequence (P12389 28-511 limits assumed) above
rat α2β4 nAChR, sequence (P12392 21-495 limits assumed): as the sequence (P12392 21-495 limits assumed) above

human α9α10 nAChR = human α9α10 nAChR (Homo sapiens, UniProt Q9GZZ6+Q9UGM1); experiment: cell-based; assay type: cell-based
human α9α10 nAChR, sequence (Q9UGM1 26-479 limits assumed): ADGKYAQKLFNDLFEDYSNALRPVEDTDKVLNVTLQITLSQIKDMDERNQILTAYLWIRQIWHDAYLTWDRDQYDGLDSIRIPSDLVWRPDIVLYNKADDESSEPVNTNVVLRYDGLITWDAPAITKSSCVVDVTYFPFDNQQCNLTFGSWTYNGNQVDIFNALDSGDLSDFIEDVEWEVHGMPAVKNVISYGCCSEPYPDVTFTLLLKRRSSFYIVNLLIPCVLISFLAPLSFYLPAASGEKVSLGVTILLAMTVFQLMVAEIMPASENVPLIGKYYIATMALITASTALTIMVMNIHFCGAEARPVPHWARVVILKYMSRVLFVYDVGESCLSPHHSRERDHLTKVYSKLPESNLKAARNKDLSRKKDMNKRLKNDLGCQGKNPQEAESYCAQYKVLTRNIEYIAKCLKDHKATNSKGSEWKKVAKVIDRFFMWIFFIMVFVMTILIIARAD
human α9α10 nAChR, sequence (Q9GZZ6 25-450 limits assumed): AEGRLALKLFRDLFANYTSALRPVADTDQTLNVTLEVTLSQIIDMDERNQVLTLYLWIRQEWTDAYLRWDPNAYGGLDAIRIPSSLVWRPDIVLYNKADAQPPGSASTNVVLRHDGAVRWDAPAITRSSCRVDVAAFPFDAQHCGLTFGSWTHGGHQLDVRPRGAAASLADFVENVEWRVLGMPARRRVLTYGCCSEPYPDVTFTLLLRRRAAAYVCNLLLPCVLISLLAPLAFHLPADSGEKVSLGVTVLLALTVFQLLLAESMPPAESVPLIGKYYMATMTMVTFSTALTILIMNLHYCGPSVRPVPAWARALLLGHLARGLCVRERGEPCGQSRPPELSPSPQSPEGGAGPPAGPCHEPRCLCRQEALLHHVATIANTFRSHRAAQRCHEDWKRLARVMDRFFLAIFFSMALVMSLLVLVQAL

[1] = system: common mammalian nAChR combinations; assay type: cell-based

rat α3β2 nAChR, sequence (P04757 26-499 limits assumed): as the sequence (P04757 26-499 limits assumed) above
rat α3β2 nAChR, sequence (P12390 25-500 limits assumed): as the sequence (P12390 25-500 limits assumed) above

SMILES: CC(C)C[C@@H]1NC(=O)[C@H](CC(=O)O)NC(=O)[C@H](CO)NC(=O)[C@H](Cc2c[nH]cn2)NC(=O)[C@H](CCC(N)=O)NC(=O)[C@H](C(C)C)NC(=O)[C@H](CCC(N)=O)NC(=O)[C@@H]2CSSC[C@H](N)C(=O)N[C@@H](CSSC[C@@H](C(=O)O)NC1=O)C(=O)N[C@@H](CO)C(=O)N[C@@H](CC(N)=O)C(=O)N1CCC[C@H]1C(=O)N[C@@H](C)C(=O)N2 [Δ-CIC] (H-CCSNPACQVQHSDLC-OH; disulfide 1-7, 2-15)
- IC50 (rat α3β2 nAChR): 4.56 µM
- IC50 (rat α6/α3β2β3 nAChR): 1.08 µM
- IC50 (rat α7 nAChR): > 10 µM
- inhibition (in words) (rat α7 nAChR): no inhibition was detected; also recorded: No effects were observed
- IC50 (rat α4β2 nAChR): > 10 µM
- inhibition (in words) (rat α4β2 nAChR): no inhibition was detected; also recorded: No effects were observed
- IC50 (rat α4β4 nAChR): > 10 µM
- inhibition (in words) (rat α4β4 nAChR): no inhibition was detected; also recorded: No effects were observed
- IC50 (rat α3β4 nAChR): > 10 µM
- inhibition (in words) (rat α3β4 nAChR): no inhibition was detected; also recorded: No effects were observed
- IC50 (rat α2β2 nAChR): > 10 µM
- inhibition (in words) (rat α2β2 nAChR): no inhibition was detected; also recorded: No effects were observed
- IC50 (rat α2β4 nAChR): > 10 µM
- inhibition (in words) (rat α2β4 nAChR): no inhibition was detected; also recorded: No effects were observed
- IC50 (human α9α10 nAChR): > 10 µM
- inhibition (in words) (human α9α10 nAChR): no inhibition was detected; also recorded: No effects were observed
- dissociation behavior, CIC versus Δ-CIC [1]: no difference in dissociation behavior
